# Calls of active or inactive are those of the source. The calls are words filed in the database; no cut-off is given here.
# Legend:
# BGC-823 [1] = test: Growth inhibition of human BGC823 cells at 20 uM after 72 hrs by MTT assay; assay type: functional, cell-based
# Mus musculus = species on record: Mus musculus; test: Growth inhibition of MFC cells at 20 uM after 72 hrs by MTT assay; assay type: functional
# SGC-7901 [2] = test: Growth inhibition of human SGC7901 cells at 20 uM after 72 hrs by MTT assay; assay type: functional, cell-based
# SGC-7901 [3] = test: Potency index, ratio of compound effect to curcumin effect for growth inhibition of human SGC7901 cells; assay type: functional
# BGC-823 [4] = test: Inhibition of colony formation in human BGC823 cells at 5 uM treated for 12 hrs followed by incubation in drug free medium for 14 days by crystal violet staining based assay; assay type: functional, cell-based
# SGC-7901 [5] = test: Inhibition of colony formation in human SGC7901 cells at 5 uM treated for 12 hrs followed by incubation in drug free medium for 14 days by crystal violet staining based assay; assay type: functional, cell-based
# BGC-823 [6] = test: Potency index, ratio of compound effect to curcumin effect for growth inhibition of human BGC823 cells; assay type: functional
# Homo sapiens [7] = species on record: Homo sapiens; test: Inhibition of NFkappaB activation in human BGC823 cells assessed as potentiation of irrinotecan-induced cell growth inhibition at 1 uM after 48 hrs by inverted microscopic method relative to irrinotecan alone; assay type: cell-based
# Homo sapiens [8] = species on record: Homo sapiens; test: Inhibition of NFkappaB activation in human BGC823 cells assessed as potentiation of irrinotecan-induced decrease in survival cell count at 1 uM after 48 hrs by cell analyzer method; assay type: cell-based
# SGC-7901 [9] = test: Induction of apoptosis in human SGC7901 cells assessed as upegulation of cleaved PARP protein expression at 2.5 to 5 uM after 48 hrs by Western blot method; assay type: functional, cell-based
# SGC-7901 [10] = test: Induction of apoptosis in human SGC7901 cells assessed as apoptotic nuclei formation at 2.5 to 5 uM after 24 hrs by Hoechst 33258 staining based fluorescence microscopic method; assay type: functional, cell-based
# SGC-7901 [11] = test: Induction of apoptosis in human SGC7901 cells assessed as upegulation of cleaved caspase-3 protein expression at 2.5 to 5 uM after 48 hrs by Western blot method; assay type: functional, cell-based
# BGC-823 [12] = test: Induction of apoptosis in human BGC823 cells assessed as downregulation of bcl2 protein expression at 2.5 to 5 uM after 48 hrs by Western blot method; assay type: functional, cell-based
# BGC-823 [13] = test: Growth inhibition of human BGC823 cells after 72 hrs by MTT assay; assay type: functional, cell-based; settings: BGC-823, 72 h
# SGC-7901 [14] = test: Induction of apoptosis in human SGC7901 cells assessed as downregulation of bcl2 protein expression at 2.5 to 5 uM after 48 hrs by Western blot method; assay type: functional, cell-based
# Homo sapiens [15] = species on record: Homo sapiens; test: Inhibition of NFkappaB activation in human BGC823 cells assessed as potentiation of irrinotecan-induced cell growth inhibition at 1 uM after 72 hrs by MTT method relative to irrinotecan alone; assay type: cell-based
# Homo sapiens [16] = species on record: Homo sapiens; test: Inhibition of NFkappaB activation in human BGC823 cells assessed as potentiation of irrinotecan-induced cell growth inhibition at 1 uM after 48 hrs by inverted microscopic method relative to (3E,5E)-3-(2,3-dimethoxybenzylidene)-5-(4-hydroxy-3-methoxybenzylidene)dihydro-2H-pyran-4(3H)-one alone; assay type: cell-based
# Homo sapiens [17] = species on record: Homo sapiens; test: Inhibition of NFkappaB activation in human SGC7901 cells assessed as reduction in TNFalpha-induced IkBalpha degradation at 1 to 5 uM preincubated for 2 hrs followed by TNFalpha addition measured after 30 mins by Western blot method; assay type: cell-based
# Homo sapiens [18] = species on record: Homo sapiens; test: Inhibition of NFkappaB activation in human BGC823 cells assessed as potentiation of irrinotecan-induced decrease in colony formation at 1 uM preincubated for 12 hrs followed by incubation in drug free medium for 11 days by crystal violet staining based assay; assay type: cell-based
# Homo sapiens [19] = species on record: Homo sapiens; test: Inhibition of NFkappaB activation in human BGC823 cells assessed as potentiation of irrinotecan-induced cell growth inhibition at 1 uM after 72 hrs by MTT method relative to (3E,5E)-3-(2,3-dimethoxybenzylidene)-5-(4-hydroxy-3-methoxybenzylidene)dihydro-2H-pyran-4(3H)-one alone; assay type: cell-based
# SGC-7901 [20] = test: Growth inhibition of human SGC7901 cells after 72 hrs by MTT assay; assay type: functional, cell-based; settings: SGC-7901, 72 h
# BGC-823 [21] = test: Induction of apoptosis in human BGC823 cells assessed as upegulation of cleaved PARP protein expression at 2.5 to 5 uM after 48 hrs by Western blot method; assay type: functional, cell-based
# SGC-7901 [22] = test: Induction of apoptosis in human SGC7901 cells assessed as upegulation of Bax protein expression at 2.5 to 5 uM after 48 hrs by Western blot method; assay type: functional, cell-based
# SGC-7901 [23] = test: Inhibition of colony formation in human SGC7901 cells treated for 12 hrs followed by incubation in drug free medium for 14 days by crystal violet staining based assay; assay type: functional, cell-based
# Homo sapiens [24] = species on record: Homo sapiens; test: Inhibition of NFkappaB activation in human BGC823 cells assessed as reduction in TNFalpha-induced IkBalpha degradation at 1 to 5 uM preincubated for 2 hrs followed by TNFalpha addition measured after 30 mins by Western blot method; assay type: cell-based
# BGC-823 [25] = test: Inhibition of colony formation in human BGC823 cells treated for 12 hrs followed by incubation in drug free medium for 14 days by crystal violet staining based assay; assay type: functional, cell-based
# BGC-823 [26] = test: Induction of apoptosis in human BGC823 cells assessed as upegulation of Bax protein expression at 2.5 to 5 uM after 48 hrs by Western blot method; assay type: functional, cell-based
# BGC-823 [27] = test: Induction of apoptosis in human BGC823 cells assessed as upegulation of cleaved caspase-3 protein expression at 2.5 to 5 uM after 48 hrs by Western blot method; assay type: functional, cell-based
structure (smiles),measurement,setting,value
COc1cc(/C=C/C(=O)CC(=O)/C=C/c2ccc(O)c(OC)c2)ccc1O,growth inhibition (GI),BGC-823 [1],Active
same,growth inhibition (GI),Mus musculus,Active
same,growth inhibition (GI),SGC-7901 [2],Active
COc1ccc(/C=C2\COC/C(=C\c3ccc(O)c(OC)c3)C2=O)c(OC)c1,Ratio,SGC-7901 [3],>2
same,growth inhibition (GI),SGC-7901 [2],Active
Cc1ccc(S(=O)(=O)/C=C/C#N)cc1,inhibition,BGC-823 [4],Active
same,inhibition,SGC-7901 [5],Active
COc1ccc(OC)c(/C=C2\COC/C(=C\c3ccc(O)c(OC)c3)C2=O)c1,Ratio,SGC-7901 [3],>2
same,growth inhibition (GI),BGC-823 [1],Active
same,growth inhibition (GI),Mus musculus,Active
same,growth inhibition (GI),SGC-7901 [2],Active
same,Ratio,BGC-823 [6],>10
COc1cc(/C=C2\COC/C(=C\c3cccc(OC)c3OC)C2=O)ccc1O,Ratio,SGC-7901 [3],>2
same,fold change (FC),Homo sapiens [7],2
same,inhibition,Homo sapiens [8],Active
same,Activity,SGC-7901 [9],Active
same,growth inhibition (GI),BGC-823 [1],Active
same,Activity,SGC-7901 [10],Active
same,Activity,SGC-7901 [11],Active
same,Activity,BGC-823 [12],Active
same,growth inhibition (GI),Mus musculus,Active
same,IC50,BGC-823 [13],3500 nM
same,Activity,SGC-7901 [14],Active
same,fold change (FC),Homo sapiens [15],10
same,fold change (FC),Homo sapiens [16],3
same,inhibition,Homo sapiens [17],Dose-dependent effect
same,inhibition,Homo sapiens [18],Active
same,growth inhibition (GI),SGC-7901 [2],Active
same,fold change (FC),Homo sapiens [19],2.5
same,IC50,SGC-7901 [20],1600 nM
same,Activity,BGC-823 [21],Active
same,Activity,SGC-7901 [22],Active
same,inhibition,SGC-7901 [23],Dose-dependent effect
same,inhibition,Homo sapiens [24],Dose-dependent effect
same,Ratio,BGC-823 [6],>10
same,inhibition,BGC-823 [25],Dose-dependent effect
same,Activity,BGC-823 [26],Active
same,Activity,BGC-823 [27],Active
COc1ccc(/C=C2\COC/C(=C\c3ccc(O)c(OC)c3)C2=O)cc1O,Ratio,SGC-7901 [3],>2
same,growth inhibition (GI),BGC-823 [1],Active
same,growth inhibition (GI),Mus musculus,Active
same,growth inhibition (GI),SGC-7901 [2],Active
same,Ratio,BGC-823 [6],>10
COc1ccc(/C=C2\COC/C(=C\c3ccc(O)c(OC)c3)C2=O)c(C(F)(F)F)c1,Ratio,SGC-7901 [3],>2
same,growth inhibition (GI),BGC-823 [1],Active
same,growth inhibition (GI),SGC-7901 [2],Active
same,Ratio,BGC-823 [6],>10
Cc1ccc2nc(NCCN)c3ncc(C)n3c2c1,growth inhibition (GI),BGC-823 [1],Active
same,growth inhibition (GI),Mus musculus,Active
same,growth inhibition (GI),SGC-7901 [2],Active

# — ChEMBL document CHEMBL4130427, “Synthesis and evaluation of asymmetric curcuminoid analogs as potential anticancer agents that downregulate NF-κB activation and enhance the sensitivity of gastric cancer cell lines to irinotecan chemotherapy” (Eur J Med Chem, 2017)
